Legend:
Type in all cases: in vivo
[1] = system: canarygrass (Phalaris minor); assay: Test B postemergence plant response; conditions: for Plant response rating, Canarygrass: Postemergence
Summary of the method: (§1)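 Test compounds were applied postemergence to plants 2 to 18 cm tall (1- to 4-leaf stage). After 13 to 15 days in a greenhouse, each species was visually compared with untreated controls and rated 0 (no effect) to 100 (complete control).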

[2] = system: chickweed (Stellaria media); assay: Test B postemergence plant response; conditions: for Chickweed plant response rating: 8 g ai/ha, postemergence, 0-100 scale; for Plant response rating, Chickweed: Postemergence
Summary of the method: as §1

[3] = system: spring barley (Hordeum vulgare); assay: Test C pre-/postemergence plant response; conditions: Preemergence
Summary of the method: (§2)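 Scores (0 = no effect, 100 = complete control) are visual assessments made against control plants 15–25 days post-treatment in a controlled environment. Applications were preemergence and postemergence, with postemergence plants between 1- and 4-leaf stage.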

[4] = system: winter wheat (Triticum aestivum); assay: Test C pre-/postemergence plant response; conditions: Preemergence
Summary of the method: as §2

[5] = system: green foxtail (Setaria viridis); assay: Test C pre-/postemergence plant response; conditions: Preemergence
Summary of the method: as §2

[6] = system: pigweed (Amaranthus retroflexus); assay: Test C pre-/postemergence plant response; conditions: Preemergence
Summary of the method: as §2

[7] = system: canarygrass (Phalaris minor); assay: Test C pre-/postemergence plant response; conditions: Preemergence
Summary of the method: as §2

[8] = system: blackgrass (Alopecurus myosuroides); assay: Test C pre-/postemergence plant response; conditions: Preemergence
Summary of the method: as §2

[9] = system: downy bromegrass (Bromus tectorum); assay: Test C pre-/postemergence plant response; conditions: Preemergence
Summary of the method: as §2

[10] = system: wild mustard (Sinapis arvensis); assay: Test C pre-/postemergence plant response; conditions: Preemergence
Summary of the method: as §2

[11] = system: Italian ryegrass (Lolium multiflorum); assay: Test C pre-/postemergence plant response; conditions: Preemergence
Summary of the method: as §2

wild oat (Avena fatua) = assay: Test C pre-/postemergence plant response; conditions: Preemergence
Summary of the method: as §2

[12] = system: annual bluegrass (Poa annua); assay: Test C pre-/postemergence plant response; conditions: Preemergence
Summary of the method: as §2

[13] = system: spring wheat (Triticum aestivum); assay: Test C pre-/postemergence plant response; conditions: Preemergence
Summary of the method: as §2

[14] = system: winter barley (Hordeum vulgare); assay: Test C pre-/postemergence plant response; conditions: Preemergence
Summary of the method: as §2

[15] = system: windgrass (Apera spica-venti); assay: Test C pre-/postemergence plant response; conditions: Preemergence
Summary of the method: as §2

[16] = 31 g ai/ha, scale 0 to 100, 0 no effect, 100 complete control
[17] = 62 g ai/ha, scale 0 to 100, 0 no effect, 100 complete control
[18] = 8 g ai/ha, scale 0 to 100 (0 no effect, 100 complete control)
[19] = 16 g ai/ha, scale 0 to 100 (0 no effect, 100 complete control)
[20] = 31 g ai/ha, scale 0 to 100 (0 no effect, 100 complete control)

Compound: CCc1cc(-c2ccc(Cl)cc2)nn1-c1c(OC(=O)OC(C)C)cnn(C)c1=O [Compound 41]
- Plant response rating, Canarygrass ([1]; 16 g ai/ha, scale 0 to 100): 0
- Plant response rating, Canarygrass [1, 16]: 0
- Plant response rating, Canarygrass [1, 17]: 0
- Chickweed plant response rating [2]: 0
- Plant response rating, Chickweed ([2]; 16 g ai/ha, scale 0 to 100): 0
- Plant response rating, Chickweed [2, 16]: 0
- Plant response rating, Chickweed [2, 17]: 0
- Plant response rating, Barley, Spring [3, 18]: 0
- Plant response rating, Barley, Spring [3, 19]: 65
- Plant response rating, Barley, Spring [3, 20]: 75
- Plant response rating, Barley, Spring [3, 17]: 90
- Plant response rating, Wheat, Winter [4, 18]: 0
- Plant response rating, Wheat, Winter [4, 19]: 40
- Plant response rating, Wheat, Winter [4, 20]: 60
- Plant response rating, Wheat, Winter [4, 17]: 98
- Plant response rating, Foxtail, Green [5, 18]: 98
- Plant response rating, Foxtail, Green [5, 19]: 100
- Plant response rating, Foxtail, Green [5, 20]: 100
- Plant response rating, Foxtail, Green [5, 17]: 100
- Plant response rating, Pigweed [6, 18]: 0
- Plant response rating, Pigweed [6, 19]: 0
- Plant response rating, Pigweed [6, 20]: 0
- Plant response rating, Pigweed [6, 17]: 0
- Plant response rating, Canarygrass [7, 18]: 50
- Plant response rating, Canarygrass [7, 19]: 80
- Plant response rating, Canarygrass [7, 20]: 98
- Plant response rating, Canarygrass [7, 17]: 100
- Plant response rating, Blackgrass [8, 18]: 100
- Plant response rating, Blackgrass [8, 19]: 100
- Plant response rating, Blackgrass [8, 20]: 100
- Plant response rating, Blackgrass [8, 17]: 100
- Plant response rating, Bromegrass, Downy [9, 18]: 0
- Plant response rating, Bromegrass, Downy [9, 19]: 50
- Plant response rating, Bromegrass, Downy [9, 20]: 50
- Plant response rating, Bromegrass, Downy [9, 17]: 80
- Plant response rating, Mustard, Wild [10, 18]: 0
- Plant response rating, Mustard, Wild [10, 20]: 0
- Plant response rating, Mustard, Wild [10, 17]: 0
- Plant response rating, Ryegrass, Italian [11, 18]: 100
- Plant response rating, Ryegrass, Italian [11, 19]: 100
- Plant response rating, Ryegrass, Italian [11, 20]: 100
- Plant response rating, Ryegrass, Italian [11, 17]: 100
- Plant response rating, Oat, Wild (wild oat (Avena fatua); [18]): 65
- Plant response rating, Oat, Wild (wild oat (Avena fatua); [19]): 75
- Plant response rating, Oat, Wild (wild oat (Avena fatua); [20]): 95
- Plant response rating, Oat, Wild (wild oat (Avena fatua); [17]): 95
- Plant response rating, Bluegrass [12, 18]: 0
- Plant response rating, Bluegrass [12, 19]: 0
- Plant response rating, Wheat, Spring [13, 18]: 0
- Plant response rating, Wheat, Spring [13, 19]: 50
- Plant response rating, Wheat, Spring [13, 20]: 75
- Plant response rating, Wheat, Spring [13, 17]: 95
- Plant response rating, Barley, Winter [14, 18]: 10
- Plant response rating, Barley, Winter [14, 19]: 25
- Plant response rating, Barley, Winter [14, 20]: 70
- Plant response rating, Barley, Winter [14, 17]: 80
- Plant response rating, Windgrass [15, 18]: 65
- Plant response rating, Windgrass [15, 19]: 98
- Plant response rating, Windgrass [15, 20]: 100
- Plant response rating, Windgrass [15, 17]: 100

Compound: Cc1cc(-c2ccc(Cl)cc2)nn1-c1c(OC(=O)c2ccccc2)cnn(C)c1=O [Compound 48]
- Canarygrass plant response rating ([1]; 8 g ai/ha, postemergence, 0-100 scale): 0
- Plant response rating, Canarygrass ([1]; 16 g ai/ha, scale 0 to 100): 0
- Plant response rating, Canarygrass ([1]; 31 g ai/ha, scale 0 to 100): 90
- Chickweed plant response rating [2]: 0
- Plant response rating, Chickweed ([2]; 16 g ai/ha, scale 0 to 100): 0
- Plant response rating, Chickweed ([2]; 31 g ai/ha, scale 0 to 100): 0
- Plant response rating, Chickweed [2, 17]: 0
- Plant response rating, Barley, Spring [3, 18]: 0
- Plant response rating, Barley, Spring [3, 19]: 15
- Plant response rating, Barley, Spring [3, 20]: 30
- Plant response rating, Barley, Spring [3, 17]: 80
- Plant response rating, Wheat, Winter [4, 18]: 0
- Plant response rating, Wheat, Winter [4, 19]: 0
- Plant response rating, Wheat, Winter [4, 20]: 20
- Plant response rating, Wheat, Winter [4, 17]: 70
- Plant response rating, Foxtail, Green [5, 18]: 35
- Plant response rating, Foxtail, Green [5, 19]: 95
- Plant response rating, Foxtail, Green [5, 20]: 100
- Plant response rating, Foxtail, Green [5, 17]: 100
- Plant response rating, Pigweed [6, 18]: 0
- Plant response rating, Pigweed [6, 19]: 0
- Plant response rating, Pigweed [6, 20]: 0
- Plant response rating, Pigweed [6, 17]: 0
- Plant response rating, Canarygrass [7, 18]: 0
- Plant response rating, Canarygrass [7, 19]: 0
- Plant response rating, Canarygrass [7, 20]: 85
- Plant response rating, Canarygrass [7, 17]: 95
- Plant response rating, Blackgrass [8, 18]: 35
- Plant response rating, Blackgrass [8, 19]: 50
- Plant response rating, Blackgrass [8, 20]: 65
- Plant response rating, Blackgrass [8, 17]: 98
- Plant response rating, Bromegrass, Downy [9, 18]: 0
- Plant response rating, Bromegrass, Downy [9, 19]: 0
- Plant response rating, Bromegrass, Downy [9, 20]: 0
- Plant response rating, Bromegrass, Downy [9, 17]: 40
- Plant response rating, Mustard, Wild [10, 20]: 0
- Plant response rating, Mustard, Wild [10, 17]: 0
- Plant response rating, Ryegrass, Italian [11, 18]: 40
- Plant response rating, Ryegrass, Italian [11, 19]: 40
- Plant response rating, Ryegrass, Italian [11, 20]: 90
- Plant response rating, Ryegrass, Italian [11, 17]: 100
- Plant response rating, Oat, Wild (wild oat (Avena fatua); [18]): 0
- Plant response rating, Oat, Wild (wild oat (Avena fatua); [19]): 0
- Plant response rating, Oat, Wild (wild oat (Avena fatua); [20]): 50
- Plant response rating, Oat, Wild (wild oat (Avena fatua); [17]): 70
- Plant response rating, Bluegrass [12, 18]: 0
- Plant response rating, Bluegrass [12, 19]: 0
- Plant response rating, Bluegrass [12, 20]: 0
- Plant response rating, Bluegrass [12, 17]: 0
- Plant response rating, Wheat, Spring [13, 18]: 0
- Plant response rating, Wheat, Spring [13, 19]: 35
- Plant response rating, Wheat, Spring [13, 20]: 60
- Plant response rating, Wheat, Spring [13, 17]: 75
- Plant response rating, Barley, Winter [14, 18]: 0
- Plant response rating, Barley, Winter [14, 19]: 0
- Plant response rating, Barley, Winter [14, 20]: 0
- Plant response rating, Barley, Winter [14, 17]: 70
- Plant response rating, Windgrass [15, 18]: 0
- Plant response rating, Windgrass [15, 19]: 0
- Plant response rating, Windgrass [15, 20]: 35
- Plant response rating, Windgrass [15, 17]: 80

Source: patent publication US20100267561A1, “HERBICIDAL PYRIDAZINONE DERIVATIVES” (priority 2007, published 2010)
